US10294202B2, “Pyrrolidinones as herbicides” (FMC Corporation, priority 2013, dated 2019)

Columns and labels:
oat, wild = experiment: Test C pre-/postemergence herbicide test; format: in vivo, Avena fatua; settings: Postemergence
Method in brief: (§1)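 Herbicidal effect was judged by eye 13 to 15 days after treatment in the greenhouse, using a 0–100 scale against controls. Chemicals in a non-phytotoxic solvent with surfactant were sprayed onto planted loam/sand soil or onto plants 2 to 18 cm tall in a peat-based growing medium.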

giant foxtail = experiment: Test A pre-/postemergence herbicide test; format: in vivo, Setaria faberii
Method in brief: (§2)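 Both application timings used compounds in a non-phytotoxic solvent plus surfactant. Pre-emergence: soil sprayed directly after seeding into loam/sand. Post-emergence: foliage of 2–10 cm seedlings (1–2 leaves) sprayed. Injury rated ~10 days later, 0–100.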

ryegrass, Italian = experiment: Test C pre-/postemergence herbicide test; format: in vivo, Lolium multiflorum
Method in brief: as §1

velvetleaf = experiment: Test C pre-/postemergence herbicide test; format: in vivo, Abutilon theophrasti
Method in brief: as §1

rice = experiment: Test C flooded paddy test; format: in vivo, Oryza sativa; settings: Flood
Method in brief: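 Ratings reflect visual comparison with controls on a 0–100 scale, where 100 is complete control. Compound is dosed into standing paddy water 3 cm deep over 2-leaf-stage plants, kept in the greenhouse 13 to 15 days.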

ragweed [1] = experiment: Test C pre-/postemergence herbicide test; format: in vivo, Ambrosia elatior
Method in brief: as §1

blackgrass = experiment: Test A postemergence herbicide test; format: in vivo, Alopecurus myosuroides
Method in brief: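 Plants at the one- to two-leaf stage, 2–10 cm tall, grown in loam/sand pots, received postemergence sprays of the test chemicals. After about 10 days in the greenhouse, injury was scored visually against untreated controls on a 0–100 scale (0 none, 100 complete control).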

ragweed [2] = experiment: Test A pre-/postemergence herbicide test; format: in vivo, Ambrosia elatior
Method in brief: as §2

kochia = experiment: Test A pre-/postemergence herbicide test; format: in vivo, Kochia scoparia
Method in brief: as §2

[3] = 31 g ai/ha, scale 0 to 100 (0 no effect, 100 complete control)
[4] = 62 g ai/ha, scale 0 (no effect) to 100 (complete control)
[5] = 125 g ai/ha, scale 0 to 100 (0 no effect, 100 complete control)
[6] = Postemergence, 125 g ai/ha, 0 to 100 scale, 0 is no effect, 100 is complete control
[7] = Postemergence, 500 g ai/ha, 0 to 100 scale (0 no effect, 100 complete control)
[8] = Preemergence, 125 g ai/ha, 0 to 100 scale where 0 is no effect and 100 is complete control
[9] = preemergence, 500 g ai/ha, 0 to 100 scale, 0 is no effect and 100 is complete control
[10] = Postemergence, 16 g ai/ha, scale 0 to 100 (0 no effect, 100 complete control)
[11] = Postemergence, 31 g ai/ha, scale 0 to 100 (0 no effect, 100 complete control)
[12] = Postemergence, 62 g ai/ha, scale 0 (no effect) to 100 (complete control)
[13] = Postemergence, 125 g ai/ha, scale 0 to 100 (0 no effect, 100 complete control)
[14] = Preemergence, 31 g ai/ha, scale 0 to 100, 0 is no effect and 100 is complete control
[15] = Preemergence, 62 g ai/ha, scale 0 to 100 (0 no effect, 100 complete control)
[16] = Preemergence, 125 g ai/ha, scale 0 to 100 (0 no effect, 100 complete control)
[17] = Preemergence, 16 g ai/ha, scale 0 to 100
[18] = 62 g ai/ha, scale of 0 to 100 where 0 is no effect and 100 is complete control, 13 to 15 days
[19] = 125 g ai/ha, scale of 0 to 100 where 0 is no effect and 100 is complete control, 13 to 15 days
[20] = 250 g ai/ha, scale of 0 to 100 where 0 is no effect and 100 is complete control, 13 to 15 days
[21] = 500 g ai/ha, 0 to 100 scale (0 no effect, 100 complete control)
[22] = Postemergence, 125 g ai/ha, visual rating on 0 to 100 scale (0 no effect, 100 complete control), approx. 10 days
[23] = Preemergence, 500 g ai/ha, visual rating on 0 to 100 scale (0 no effect, 100 complete control)
[24] = Postemergence, 250 g ai/ha, scale 0 to 100 (0 no effect, 100 complete control)
[25] = Preemergence, 125 g ai/ha, scale 0 to 100

Compound: CN1CC(c2cccc(C(F)(F)F)c2)C(C(=O)Nc2ccccc2F)C1=O (centres unmarked) [Compound 277]
- Plant response rating, Oat, Wild (oat, wild; 16 g ai/ha, scale 0 to 100 (0 no effect, 100 complete control)): 0
- Plant response rating, Oat, Wild (oat, wild; [3]): 0
- Plant response rating, Oat, Wild (oat, wild; [4]): 0
- Plant response rating, Oat, Wild (oat, wild; [5]): 5
- Plant response rating, Foxtail, Giant (giant foxtail; [6]): 90
- Plant response rating, Foxtail, Giant (giant foxtail; [7]): 90
- Plant response rating, Foxtail, Giant (giant foxtail; [8]): 90
- Plant response rating, Foxtail, Giant (giant foxtail; [9]): 90
- Plant response rating, Ryegrass, Italian (ryegrass, Italian; [10]): 0
- Plant response rating, Ryegrass, Italian (ryegrass, Italian; [11]): 0
- Plant response rating, Ryegrass, Italian (ryegrass, Italian; [12]): 5
- Plant response rating, Ryegrass, Italian (ryegrass, Italian; [13]): 35
- Ryegrass, Italian plant response rating (ryegrass, Italian; [14]): 40
- Ryegrass, Italian plant response rating (ryegrass, Italian; [15]): 35
- Plant response rating, Ryegrass, Italian (ryegrass, Italian; [16]): 40
- Plant response rating, Ryegrass, Italian (ryegrass, Italian; [17]): 30
- Plant response rating, Velvetleaf (velvetleaf; [10]): 0
- Plant response rating, Velvetleaf (velvetleaf; [11]): 0
- Plant response rating, Velvetleaf (velvetleaf; [12]): 0
- Plant response rating, Velvetleaf (velvetleaf; [13]): 15
- Velvetleaf plant response rating (velvetleaf; [14]): 0
- Velvetleaf plant response rating (velvetleaf; [15]): 0
- Plant response rating, Velvetleaf (velvetleaf; [16]): 35
- Plant response rating, Velvetleaf (velvetleaf; [17]): 0
- Plant response rating, Rice (rice; [18]): 0
- Plant response rating, Rice (rice; [19]): 0
- Plant response rating, Rice (rice; [20]): 0
- Plant response rating, Rice (rice; 500 g ai/ha, scale 0 to 100): 0
- Plant response rating, Ragweed (ragweed [1]; [10]): 10
- Plant response rating, Ragweed (ragweed [1]; [11]): 40
- Plant response rating, Ragweed (ragweed [1]; [12]): 35
- Plant response rating, Ragweed (ragweed [1]; [13]): 40
- Ragweed plant response rating (ragweed [1]; [14]): 0
- Ragweed plant response rating (ragweed [1]; [15]): 0
- Plant response rating, Ragweed (ragweed [1]; [16]): 40
- Plant response rating, Ragweed (ragweed [1]; [17]): 0
- Plant response rating, Blackgrass (blackgrass; 125 g ai/ha, 0 to 100 scale, 0 is no effect, 100 is complete control): 50
- Plant response rating, Blackgrass (blackgrass; [21]): 50
- Plant response rating, Ragweed (ragweed [2]; [22]): 30
- Plant response rating, Ragweed (ragweed [2]; [7]): 30
- Plant response rating, Ragweed (ragweed [2]; [8]): 20
- Plant response rating, Ragweed (ragweed [2]; [9]): 20
- Plant response rating, Kochia (kochia; [6]): 30
- Plant response rating, Kochia (kochia; [7]): 30
- Plant response rating, Kochia (kochia; [8]): 30
- Plant response rating, Kochia (kochia; [9]): 60

Compound: O=C1NCC(c2cccc(C(F)(F)F)c2)C1C(=O)Nc1ccccc1Cl (centres unmarked) [Compound 312]
- Plant response rating, Oat, Wild (oat, wild; [3]): 0
- Plant response rating, Oat, Wild (oat, wild; [4]): 0
- Plant response rating, Oat, Wild (oat, wild; [5]): 0
- Plant response rating, Oat, Wild (oat, wild; 250 g ai/ha, scale 0 to 100 (0 no effect, 100 complete control)): 0
- Plant response rating, Foxtail, Giant (giant foxtail; [22]): 80
- Plant response rating, Foxtail, Giant (giant foxtail; [7]): 90
- Plant response rating, Foxtail, Giant (giant foxtail; [8]): 90
- Foxtail, Giant plant response rating (giant foxtail; [23]): 90
- Plant response rating, Ryegrass, Italian (ryegrass, Italian; [11]): 0
- Plant response rating, Ryegrass, Italian (ryegrass, Italian; [12]): 0
- Plant response rating, Ryegrass, Italian (ryegrass, Italian; [13]): 35
- Plant response rating, Ryegrass, Italian (ryegrass, Italian; [24]): 10
- Ryegrass, Italian plant response rating (ryegrass, Italian; [15]): 30
- Plant response rating, Ryegrass, Italian (ryegrass, Italian; [25]): 35
- Plant response rating (scale of 0 to 100), Ryegrass, Italian (ryegrass, Italian; Preemergence, 250 g ai/ha): 30
- Plant response rating, Velvetleaf (velvetleaf; [11]): 30
- Plant response rating, Velvetleaf (velvetleaf; [12]): 0
- Plant response rating, Velvetleaf (velvetleaf; [13]): 0
- Plant response rating, Velvetleaf (velvetleaf; [24]): 35
- Velvetleaf plant response rating (velvetleaf; [15]): 15
- Plant response rating, Velvetleaf (velvetleaf; [25]): 20
- Plant response rating (scale of 0 to 100), Velvetleaf (velvetleaf; Preemergence, 250 g ai/ha): 40
- Plant response rating, Rice (rice; 31 g ai/ha, scale of 0 to 100 where 0 is no effect and 100 is complete control, 13 to 15 days): 0
- Plant response rating, Rice (rice; [18]): 0
- Plant response rating, Rice (rice; [19]): 0
- Plant response rating, Rice (rice; [20]): 0
- Plant response rating, Ragweed (ragweed [1]; [11]): 40
- Plant response rating, Ragweed (ragweed [1]; [12]): 35
- Plant response rating, Ragweed (ragweed [1]; [13]): 45
- Plant response rating, Ragweed (ragweed [1]; [24]): 55
- Ragweed plant response rating (ragweed [1]; [15]): 0
- Plant response rating, Ragweed (ragweed [1]; [25]): 50
- Plant response rating (scale of 0 to 100), Ragweed (ragweed [1]; Preemergence, 250 g ai/ha): 10
- Plant response rating, Blackgrass (blackgrass; 125 g ai/ha, visual rating on 0 to 100 scale (0 no effect, 100 complete control), approx. 10 days): 40
- Plant response rating, Blackgrass (blackgrass; [21]): 50
- Plant response rating, Ragweed (ragweed [2]; [22]): 20
- Plant response rating, Ragweed (ragweed [2]; [7]): 40
- Plant response rating, Ragweed (ragweed [2]; [8]): 0
- Ragweed plant response rating (ragweed [2]; [23]): 30
- Plant response rating, Kochia (kochia; [22]): 20
- Plant response rating, Kochia (kochia; [7]): 40
- Plant response rating, Kochia (kochia; [8]): 20
- Kochia plant response rating (kochia; [23]): 70
